Key:
C57BL/6 splenocytes = experiment: Effects of CpG, MKR.4 and anti-MHC class II antibody on C57BL/6 splenocyte viability counts (Example 2); assay type: cell-based, mouse; conditions: CpG 5 ug/mL at start, MKR.4 5 ug/mL 24 h later for 2 h, Anti MHC Class II 5 ug/mL, viability counts 24 h after antibody
Method: C57BL/6 were Prepared as Follows: • A spleen from a C57BL/6 mouse was placed in a cell strainer in a petri dish with 6 mL of PBS • The spleen was mashed to produce a cell suspension • The PBS splenocyte cell suspension was transferred into a labeled 15 mL conical tube and centrifuged for 5 minutes at 1000 rpm • The pellet was resuspended in 1 mL of PBS • Geys was prepared to lyse the red blood cells • 7 mL of DI H20 • 0.5 mL of Geys B • 0.5 mL of Geys C • weighed out […] of NH4Cl • Mixed the […] of NH4Cl with 2 mL of Geys A • Transferred the dissolved solution to a 15 mL conical tube with the H20, Geys B, and Geys C • 3 mL of the Geys solution was added to the 1 mL of PBS cell suspension, mixed well and placed on ice for 1 minute (frequently inverted solution in tube on ice during the 1 minute) • The mixture was centrifuged for 5 minutes at 1000 rpm, washed with 5 mL of PBS, centrifuged for 5 minutes at 1000 rpm and resuspended in 10 mL of PBS • A hemacytometer count was performed: 99.0*10^6 cells total (9.9*10^6 cells/mL) plate 4*10^6 cells per well*8 wells=32 million; 32*10^6/9.9*10^6=3.23 mL of this suspension needed to obtain 32*10^6 cells • Centrifuged 3.23 mL of the suspension for 5 minutes at 1000 rpm and resuspended the pellet in 8 mL of 5% FBS RPMI • 1 mL of suspension was added to each well (12-well plate) • Added another 2 mL of 5% FBS RPMI to each well to bring the final volume up to 3 mL
(§1) 8 wells were set up for the experiment for each cell type (CRL-5822 and C57BL/6) with no treatment, with CpG, MKR.4 peptide, with MKR.4 peptide+CpG and with or without addition of purified Anti Class-II (HLA-DR,DP,DQ) treatment in the amounts listed below.
C57BL/6 • CpG: • (x) (1 mg/mL stock)=(5 ug/mL) (3 mL) • x=15 ul • MKR.4: • (x) (5 mg/mL stock)=(5 ug/mL) (3 mL) • x=3 ul • Anti MHC Class II • Treat at 5 ug/mL • Stock is at 1 mg/mL • (x) (1 mg/mL)=(5 ug/mL) (3 mL) • x=15 ul/well
(§2) CpG was administered to activate the cells and induce CLIP expression. MKR.4 was added to select wells 24 hours after cell activation. The cells were incubated with MKR.4 for 2 hours. Then fresh media with or without Anti MHC Class II was added. 24 hours after Anti MHC Class II was added to the wells viability counts were performed.

CRL-5822 cells [1] = experiment: Effects of CpG, MKR.4 and anti-MHC class II antibody on CRL-5822 cell viability counts (Example 2); assay type: cell-based, human; conditions: CpG 1 ug/mL at start, MKR.4 2.5 ug/mL 24 h later for 2 h, Anti MHC Class II 5 ug/mL, viability counts 24 h after antibody
Method: CRL-5822 were Prepared as Follows: • Removed the media from a flask of CRL-5822 using a sterile glass pipet and vacuum • Added 1.5 mL of accutase to the flask and placed in incubator for 20 minutes • Washed with 3 mL of PBS • Transferred all to a sterile 15 mL conical tube • Centrifuged for 5′@1000 rpm • Removed supernatant with sterile glass pipet and vacuum • Resuspended in 3 mL of PBS • Performed a hemacytometer count indicating: 1.14*10^6 cells total of CRL-5822 cells • 1.14*10^6/8 wells+2 wells for culture maintenance=10 wells • 1.14*10^6/10 wells=[…] cells per well • Centrifuged the 3 mL of cell suspension for 5′ at 1000 rpm • Resuspended pellet in 10 mL of 10% FBS RPMI • 1 mL of this was added to 2 wells in a 12-well plate added 1 mL of fresh 10% FBS RPMI to each well to bring the total volume up to 2 mL.
as §1
CRL-5822 • CpG: • (x) (1 mg/mL stock)=(1 ug/mL) (2 mL) • x=2 ul • MKR.4: • (x) (5 mg/mL stock)=(2.5 ug/mL) (2 mL) • x=1 ul • Anti MHC Class II • Treat at 5 ug/mL • Stock is at 1 mg/mL • (x) (1 mg/mL)=(5 ug/mL) (2 mL) • x=10 ul/well
as §2

CRL-5822 cells [2] = experiment: Effects of LPS, MKR.4 and anti-MHC class II antibody on CRL-5822 cell viability counts (Example 1); assay type: cell-based, human; conditions: LPS 1 ug/mL at start, MKR.4 2.5 ug/mL 24 h later for 2 h, Anti MHC Class II 5 ug/mL, viability counts 24 h after antibody
Method: Methods • The media was removed from a flask of CRL-5822 using a sterile glass pipet and vacuum and 1.5 mL of accutase was added to the flask and placed in incubator for 20 minutes • The cells were washed with 3 mL of PBS and transferred to a sterile 15 mL conical tube and centrifuged for 5 minutes @1000 rpm • The supernatant was removed with sterile glass pipet and vacuum and the pellet resuspended in 5 mL of PBS • A cell count was performed using the TC-10 automated counter • Loaded 10 ul of cell suspension+10 ul of trypan blue into disposable counting slide • Loaded slide into the TC-10 • Count • Live: 3.54*10^4 cells/mL*5 mL=177,000 cells total • 177,000/9 wells (8 wells in experiment+1 to maintain culture)=19,666 cells/well (flask). • The 5 mL of cell suspension was centrifuged for 5′ at 1000 rpm, the pellet was resuspended in 9 mL of 10% FBS RPMI • 1 mL of the cell suspension was added to a T-25 flask that had 4 mL of media in it and placed in the incubator. • After culture 1 mL of the cell suspension was added to each well (8 wells in a labeled 24 well plate) • A fresh vial of MKR.4 was resuspended in sterile DMSO • 7 mg of peptide was used to make a 5 mg/mL stock • 7 mg/mL=5 mg/mL=1.4 mL of DMSO • The peptide was added into 1.4 mL of DMSO, under the hood to maintain sterility • Once all of the peptide was dissolved, 200 ul aliquots were made […]

| Substance | Total Dead (C57BL/6 splenocytes) | Total Live (C57BL/6 splenocytes) | Total Dead (CRL-5822 cells [1]) | Total Live (CRL-5822 cells [1]) | Total Dead (CRL-5822 cells [2]) | Total Live (CRL-5822 cells [2]) |
| --- | --- | --- | --- | --- | --- | --- |
| 5′-tcgtcgttttgtcgttttgtcgtt-3′ [CpG, reference compound] | 0.08*10^6 | 1.25*10^6 | 0.07*10^6 | 0.35*10^6 |  |  |
| ANS GFR IMA VLA SGG QY (ANSGFRIMAVLASGGQY) [MKR.4] | 0.10*10^6 | 0.44*10^6 | 0.08*10^6 | 0.24*10^6 | 0.07*10^6 | 0.32*10^6 |

Reference: patent US8906846B2, “Method of treating inflammatory bowel disease by administering a clip-inducing agent” (The Texas A&M University System, priority 2011, dated 2014)
